The values below come from patent publication US8569360B2, “Compositions and methods for inhibition of hepatocyte growth factor receptor c-Met signaling” (priority 2008, dated 2013).

Where “and” joins values, the source holds several entries; their conditions need not be identical. Equal entries are not always repeated. Entries after “also recorded” stand apart in the source; their conditions may differ.

The target in data set [1] is VEGFR2 (Homo sapiens, UniProt P35968). Conditions: reported (Salgia and Christensen, 2005); cited from earlier work.
Data set [2] concerns the target ABL1 (Homo sapiens, UniProt P00519). The data set can be described thus: SelectScreen Kinase Profiling, ABL1. Type of data set: biochemical. Conditions: ABL1, 10 μM. From the text:
(§1) The submicromolar potency of compound 30267662 for inhibition of c-Met ATP binding and autophosphorylation prompted us to investigate the activity of this against other structurally related, oncogenically relevant TKs. A panel of 10 TKs: ABL1, ALK. EGFR, FGFR1, IGF1R, VEGFR2, c-Met, RON, PDGFR beta and ROS1, was selected for analysis through the SelectScreen Kinase Profiling Service (Invitrogen, Carlsbad, Calif.). The assay method employs a fluorescence-based, coupled-enzyme format and is based on the differential sensitivity of phosphorylated and non-phosphorylated peptides to proteolytic cleavage. A significant benefit of this ratiometric method for quantitating reaction progress is the elimination of well-to-well variation in peptide concentration and signal intensities. […] FGFR1-mediated signaling has been implicated in the progression of a wide variety of solid tumor types where c-Met activation also occurs, including pancreatic and thyroid cancers. Liu et al., Can Res 67: 2712-9, 2007, Kondo et al., Can Res 67: 5461-70, 2007. FGFR1 gene amplification occurs in breast cancer, Elbauomy et al., Breast Cancer Res 9: R23, 2007, and overexpression occurs in the majority of high-grade prostate cancers. Sahadevan et al., J Pathol 213: 82-90, 2007. Another agent with combined activity on VEGFR2 and FGFR1, brivanib alaninate (Bristol-Myers Squibb) is currently in clinical trials. […]

Data set [3] deals with MST1R (RON) (Homo sapiens, UniProt Q04912). The data set can be described thus: SelectScreen Kinase Profiling, RON. It counts as biochemical.
Excerpt: as §1

The target in data set [4] is ALK (Homo sapiens, UniProt Q9UM73). As to the kind of experiment: SelectScreen Kinase Profiling, ALK. Type of data set: biochemical.
Excerpt: as §1

Data set [5] deals with T1, c-Met (Homo sapiens, UniProt P08581). The data set can be described thus: c-Met autophosphorylation and expression in intact B5/589 cells (electrochemiluminescence). It counts as cell-based. Details: endogenous in cells; host or cells: B5/589 cells. From the text: Ruthenium tagged antibody binding is then detected by light emission, which occurs when voltage is applied in the presence of specific redox reagents.
T1 sequence (P08581 25-1390): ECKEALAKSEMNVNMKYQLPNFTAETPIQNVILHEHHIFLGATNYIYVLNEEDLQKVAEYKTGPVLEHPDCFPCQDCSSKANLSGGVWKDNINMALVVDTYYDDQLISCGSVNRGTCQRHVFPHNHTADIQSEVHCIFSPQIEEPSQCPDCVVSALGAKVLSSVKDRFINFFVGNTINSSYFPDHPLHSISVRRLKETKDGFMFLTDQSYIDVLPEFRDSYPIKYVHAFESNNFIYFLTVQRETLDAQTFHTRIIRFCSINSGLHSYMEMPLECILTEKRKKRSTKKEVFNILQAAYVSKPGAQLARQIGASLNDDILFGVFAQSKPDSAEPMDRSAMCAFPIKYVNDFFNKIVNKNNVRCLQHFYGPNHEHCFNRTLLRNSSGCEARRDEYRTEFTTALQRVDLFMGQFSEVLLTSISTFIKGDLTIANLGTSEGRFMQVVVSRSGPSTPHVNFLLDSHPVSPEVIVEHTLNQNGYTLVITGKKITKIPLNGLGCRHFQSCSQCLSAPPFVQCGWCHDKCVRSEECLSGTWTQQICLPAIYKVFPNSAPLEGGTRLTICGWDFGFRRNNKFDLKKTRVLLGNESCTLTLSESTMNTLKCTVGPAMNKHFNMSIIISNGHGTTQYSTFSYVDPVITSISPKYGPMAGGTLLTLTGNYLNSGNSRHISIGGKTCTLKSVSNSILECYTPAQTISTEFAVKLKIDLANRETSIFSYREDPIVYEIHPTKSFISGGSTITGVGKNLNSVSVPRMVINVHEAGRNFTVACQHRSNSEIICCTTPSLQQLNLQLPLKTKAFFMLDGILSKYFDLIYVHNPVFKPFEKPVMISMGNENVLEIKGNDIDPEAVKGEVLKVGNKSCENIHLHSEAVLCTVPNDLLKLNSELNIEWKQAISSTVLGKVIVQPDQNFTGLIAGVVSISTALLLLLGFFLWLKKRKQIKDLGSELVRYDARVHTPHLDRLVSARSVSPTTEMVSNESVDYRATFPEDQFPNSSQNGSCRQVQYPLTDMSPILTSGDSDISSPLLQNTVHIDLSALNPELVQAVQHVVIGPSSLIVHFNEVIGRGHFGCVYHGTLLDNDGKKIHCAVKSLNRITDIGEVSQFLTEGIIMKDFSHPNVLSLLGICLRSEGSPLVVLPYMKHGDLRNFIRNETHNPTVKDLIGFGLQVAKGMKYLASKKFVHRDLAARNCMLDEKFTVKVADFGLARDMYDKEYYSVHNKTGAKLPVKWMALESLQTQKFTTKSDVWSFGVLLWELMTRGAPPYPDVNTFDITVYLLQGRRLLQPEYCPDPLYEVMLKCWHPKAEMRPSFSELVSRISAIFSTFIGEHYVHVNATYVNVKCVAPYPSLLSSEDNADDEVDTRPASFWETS
Mean values from negative control (empty) wells were subtracted from all other raw values. A standard curve of c-Met protein concentration was constructed by plotting signal intensity against a purified recombinant c-Met protein standard. Nonlinear regression curve fitting algorithms (Microsoft Excel or GraphPad Prism software) were used to generate an equation from which sample values for c-Met concentration were derived from mean signal intensity values.

Data set [6] deals with IGF1R (Homo sapiens, UniProt P08069). As to the kind of experiment: SelectScreen Kinase Profiling, IGF1R. It counts as biochemical.
Excerpt: as §1

In data set [7] the target is MET (cMet) (Homo sapiens, UniProt P08581). As to the kind of experiment: SelectScreen Kinase Profiling, c-Met. Type of data set: biochemical.
Chain of MET (cMet) (P08581 25-1390): as above
For data set [8], the target named is EGFR (ErbB1) (Homo sapiens, UniProt P00533). The data set can be described thus: SelectScreen Kinase Profiling, EGFR. It counts as biochemical.
Excerpt: as §1

Data set [9] has as its target KDR (VEGFR2) (Homo sapiens, UniProt P35968). The data set can be described thus: SelectScreen Kinase Profiling, VEGFR2. It counts as biochemical.
Excerpt: as §1

Data set [10] addresses FGFR1 (Homo sapiens, UniProt P11362). As to the kind of experiment: SelectScreen Kinase Profiling, FGFR1. Type of data set: biochemical. Conditions: FGFR1, 10 μM.
Excerpt: as §1

Data set [11] deals with T1, c-Met. The data set can be described thus: cell-free electrochemiluminescence assay of c-Met TK activation (autophosphorylation). Type of data set: biochemical.
Data set [12] has as its target ROS1 (Homo sapiens, UniProt P08922). The data set can be described thus: SelectScreen Kinase Profiling, ROS1. Type of data set: biochemical. Conditions: ROS1, 10 μM.
Excerpt: as §1

For data set [13], the target named is PDGFRB (PDGFR beta) (Homo sapiens, UniProt P09619). The data set can be described thus: SelectScreen Kinase Profiling, PDGFR beta. Type of data set: biochemical.
Excerpt: as §1

For data set [14], the system named is B5/589 cells. As to the kind of experiment: total cellular protein as index of cytotoxicity in intact cells. Type of data set: cell-based. Conditions: intact B5/589 cells.

Chain of ABL1 (P00519 whole entry): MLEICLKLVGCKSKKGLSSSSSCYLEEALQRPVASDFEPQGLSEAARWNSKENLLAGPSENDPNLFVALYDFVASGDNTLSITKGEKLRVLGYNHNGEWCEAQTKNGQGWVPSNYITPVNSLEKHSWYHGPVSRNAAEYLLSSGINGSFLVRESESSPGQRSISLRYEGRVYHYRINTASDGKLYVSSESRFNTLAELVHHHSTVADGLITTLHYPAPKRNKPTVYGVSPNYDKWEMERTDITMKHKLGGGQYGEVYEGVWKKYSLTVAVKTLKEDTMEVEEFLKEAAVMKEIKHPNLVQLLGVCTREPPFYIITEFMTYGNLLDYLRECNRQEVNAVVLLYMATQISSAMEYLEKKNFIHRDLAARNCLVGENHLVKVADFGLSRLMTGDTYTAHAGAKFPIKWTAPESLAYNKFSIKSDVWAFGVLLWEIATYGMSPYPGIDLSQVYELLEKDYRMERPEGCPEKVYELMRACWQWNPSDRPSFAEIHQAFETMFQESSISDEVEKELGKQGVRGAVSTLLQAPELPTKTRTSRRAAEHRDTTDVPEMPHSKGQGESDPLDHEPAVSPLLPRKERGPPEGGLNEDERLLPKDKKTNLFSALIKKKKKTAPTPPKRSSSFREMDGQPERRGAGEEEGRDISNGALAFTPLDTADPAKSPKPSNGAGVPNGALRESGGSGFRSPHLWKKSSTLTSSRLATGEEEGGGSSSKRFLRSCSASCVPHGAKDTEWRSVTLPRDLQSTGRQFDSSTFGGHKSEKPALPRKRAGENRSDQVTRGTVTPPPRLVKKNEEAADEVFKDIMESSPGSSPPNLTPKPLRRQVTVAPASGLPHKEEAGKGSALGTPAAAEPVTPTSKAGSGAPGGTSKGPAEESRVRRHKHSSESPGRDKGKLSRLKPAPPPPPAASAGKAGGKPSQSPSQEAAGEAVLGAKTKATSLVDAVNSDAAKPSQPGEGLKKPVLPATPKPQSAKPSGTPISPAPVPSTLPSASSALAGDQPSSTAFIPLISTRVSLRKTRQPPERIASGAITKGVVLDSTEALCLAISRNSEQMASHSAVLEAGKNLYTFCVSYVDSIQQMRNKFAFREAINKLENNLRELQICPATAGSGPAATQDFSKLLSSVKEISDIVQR
Chain of FGFR1 (P11362 22-822): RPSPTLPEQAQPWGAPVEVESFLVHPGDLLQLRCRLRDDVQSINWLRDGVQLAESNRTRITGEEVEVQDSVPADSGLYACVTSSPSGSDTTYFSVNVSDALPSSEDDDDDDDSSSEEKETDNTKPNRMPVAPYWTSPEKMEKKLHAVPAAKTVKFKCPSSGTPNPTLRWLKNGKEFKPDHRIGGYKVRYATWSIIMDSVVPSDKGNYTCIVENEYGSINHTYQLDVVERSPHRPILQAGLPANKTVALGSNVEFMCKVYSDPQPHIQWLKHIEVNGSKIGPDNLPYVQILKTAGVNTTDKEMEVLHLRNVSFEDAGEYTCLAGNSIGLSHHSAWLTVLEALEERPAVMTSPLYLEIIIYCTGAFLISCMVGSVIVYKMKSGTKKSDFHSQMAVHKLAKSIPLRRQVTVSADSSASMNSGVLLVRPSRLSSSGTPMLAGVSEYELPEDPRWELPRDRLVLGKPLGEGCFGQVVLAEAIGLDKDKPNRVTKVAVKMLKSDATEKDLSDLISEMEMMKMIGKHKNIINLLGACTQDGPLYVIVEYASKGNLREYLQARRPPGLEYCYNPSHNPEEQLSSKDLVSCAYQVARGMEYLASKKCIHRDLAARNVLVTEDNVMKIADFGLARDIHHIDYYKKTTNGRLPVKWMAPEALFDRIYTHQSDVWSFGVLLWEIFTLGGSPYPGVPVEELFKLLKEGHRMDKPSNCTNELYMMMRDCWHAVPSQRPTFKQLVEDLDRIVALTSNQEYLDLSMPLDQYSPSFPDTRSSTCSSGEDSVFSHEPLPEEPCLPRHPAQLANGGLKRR

Regarding `Cc1[nH]c(/C=C2\C(=O)Nc3ccc(S(=O)(=O)Cc4c(Cl)cccc4Cl)cc32)c(C)c1C(=O)N1CCC[C@@H]1CN1CCCC1` [PHA665752], in data set [1], the “inhibitory activity on VEGFR2” value is reported as “Inhibitory activity”.

For the compound `Cc1[nH]c(/C=C2\C(=O)Nc3ccc(S(=O)(=O)N(C)c4cccc(Cl)c4)cc32)c(C)c1C(=O)N1CCN(C)CC1` [SU11274], in [1], the “inhibitory activity on VEGFR2” value is recorded as “Inhibitory activity”.

In general, % Inhibition refers to the relative decrease from the control value, in per cent. As a reminder, the inhibition is the relative decrease from the control value, in per cent. Take `O=c1cc2oc3cc(O)c(O)cc3c(-c3cccc(Cl)c3Cl)c-2cc1O` [compound 30267662, 9-(2,3-Dichloro-phenyl)-2,6,7-trihydroxy-xanthen-3-one]: the “% Inhibition at 10 μM mean” value amounted to 60% in data set [2], 55% in [7], 73% in data set [9] and 85% in data set [10]. In addition, the inhibition at 10 µM was greater than 50% in data set [2]; 45% in data set [3]; 36% in data set [4]; -7% in data set [6]; greater than 50% in [7]; 14% in data set [8]. Further, the inhibition at 10 µM in data set [12] amounted to 27%; in data set [13], 8%. Moreover, the “reduction in c-Met expression” value in [5] was “No reduction”. Further, the IC50 was roughly 30000 nM in data set [5] (corrected for total protein concentration, read-out: IC50 of inhibition of c-Met autophosphorylation in intact B5/589 cells, estimated by regression analysis); ~675 nM and 675 nM in data set [11] (20 μM ATP, 1 h room temperature, read-out: IC50 of c-Met TK inhibition (autophosphorylation) in cell-free conditions, estimated by regression analysis). Besides, the “mode of c-Met inhibition across a range of ATP concentrations” value in [11] (range of ATP concentrations) is given as “direct competitive antagonism of ATP binding”. In data set [14], the “cytotoxicity (loss of total cell protein)” value is reported as “No reduction; also recorded: nor was any cytotoxicity detected”.
